Where “and” joins values, the source holds several entries; their conditions need not be identical. Equal values may be shown once. Inconclusive results and toxic doses are left out. Cut-off read from the data, not from the text of the source: active = T/C of 150% or more; inactive = T/C below 125%.
System: L1210 leukemia ip in BDF1 mice, survival T/C
Test: NCI In Vivo Anticancer Drug Screen. Data for tumor model L1210 Leukemia (intraperitoneal) in B6D2F1 (BDF1) mice
Details: endpoint: mean survival time, higher = longer survival
How it was run: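 Each compound was tested against a transplantable tumor grown in mice. The endpoint was survival, with treated animals benchmarked against vehicle controls as a simple ratio.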

[1] = dose: 100.0 mg/kg/injection, schedule: Q01DX009 (ip), vehicle: saline with Tween-80
[2] = dose: 100.0 mg/kg/injection, schedule: Q04DX002 (ip), vehicle: Klucel (hydroxypropylcellulose) (HPC)
[3] = dose: 50.0 mg/kg/injection, schedule: Q01DX001 (ip), vehicle: saline
[4] = dose: 100.0 mg/kg/injection, schedule: Q01DX001 (ip), vehicle: saline
[5] = dose: 200.0 mg/kg/injection, schedule: Q01DX001 (ip), vehicle: saline
[6] = dose: 400.0 mg/kg/injection, schedule: Q01DX001 (ip), vehicle: saline
[7] = dose: 100.0 mg/kg/injection, schedule: Q04DX003 (ip), vehicle: Klucel (hydroxypropylcellulose) (HPC)
[8] = dose: 200.0 mg/kg/injection, schedule: Q04DX003 (ip), vehicle: Klucel (hydroxypropylcellulose) (HPC)
[9] = dose: 400.0 mg/kg/injection, schedule: Q04DX003 (ip), vehicle: Klucel (hydroxypropylcellulose) (HPC)

Measured: T/C

CCc1ccc(NC(=S)NC(=O)/C=C/c2ccccc2)cc1
inactive: dose: 100.0 mg/kg/injection, schedule: Q01DX001 (ip), vehicle: saline with Tween-80 92 % of control | [1] 99 % of control and 102 % of control | dose: 100.0 mg/kg/injection, schedule: Q04DX002 (ip), vehicle: alcohol 114 % of control | dose: 100.0 mg/kg/injection, schedule: Q04DX003 (ip), vehicle: saline with Tween-80 92 % of control | dose: 200.0 mg/kg/injection, schedule: Q01DX001 (ip), vehicle: saline with Tween-80 87 % of control | dose: 200.0 mg/kg/injection, schedule: Q01DX009 (ip), vehicle: saline with Tween-80 92 % of control and 96 % of control | dose: 200.0 mg/kg/injection, schedule: Q04DX002 (ip), vehicle: alcohol 90 % of control | dose: 400.0 mg/kg/injection, schedule: Q01DX001 (ip), vehicle: saline with Tween-80 89 % of control | dose: 400.0 mg/kg/injection, schedule: Q01DX009 (ip), vehicle: saline with Tween-80 96 % of control and 105 % of control | dose: 400.0 mg/kg/injection, schedule: Q04DX002 (ip), vehicle: alcohol 97 % of control | dose: 400.0 mg/kg/injection, schedule: Q04DX003 (ip), vehicle: saline with Tween-80 87 % of control

O=C(CNC(=O)c1ccccc1)c1ccccc1
inactive: [2] 105 % of control | dose: 200.0 mg/kg/injection, schedule: Q04DX002 (ip), vehicle: Klucel (hydroxypropylcellulose) (HPC) 102 % of control | dose: 400.0 mg/kg/injection, schedule: Q04DX002 (ip), vehicle: Klucel (hydroxypropylcellulose) (HPC) 108 % of control

COCn1cnc2c(ccn2C2OC(CO)C(O)C2O)c1=O (stereo not drawn)
inactive: [3] 104 % of control | [4] 93 % of control | [5] 106 % of control | [6] 106 % of control

Cl/N=C(/c1ccccc1)c1ccc(Cl)cc1
inactive: [7] 105 % of control | [8] 102 % of control | [9] 104 % of control

BrC1(Br)C2CC/C=C\CCC21 (stereo not drawn)
inactive: dose: 50.0 mg/kg/injection, schedule: Q01DX009 (ip), vehicle: saline with Tween-80 102 % of control | [1] 94 % of control

Cc1ccc(C(=O)O)cc1[N+](=O)[O-]
inactive: [7] 95 % of control | [8] 92 % of control | [9] 103 % of control

C/C=C1\CN(C(=O)C(NC(=O)C(N)C(O)C(O)COC(N)=O)C2OC(n3cc(C(=O)O)c(=O)[nH]c3=O)C(O)C2O)C1C(=O)O (stereo not drawn) (tested in a mixture with another compound)
inactive: [4] 109 % of control | [5] 103 % of control | [6] 97 % of control

CN1C2CCC1CC(OC(=O)C(CO)c1ccccc1)C2 (stereo not drawn)
inactive: dose: 31.25 mg/kg/injection, schedule: Q01DX Z (ip), vehicle: saline 100 % of control | dose: 62.5 mg/kg/injection, schedule: Q01DX Z (ip), vehicle: saline 102 % of control | dose: 125.0 mg/kg/injection, schedule: Q01DX Z (ip), vehicle: saline 98 % of control

ClCCOCc1ccccc1
inactive: [7] 102 % of control | [8] 100 % of control | [9] 98 % of control

Nc1ccc(N=Nc2ccc(S(=O)(=O)Nc3nccs3)cc2)c(N)n1
inactive: [4] 102 % of control | [5] 96 % of control | [6] 88 % of control

CC(C)=CCC(C)c1ccncc1 (stereo not drawn)
inactive: [4] 102 % of control | [5] 97 % of control | [6] 102 % of control

CCOC(=O)c1ccc2c(c1)C(=O)c1cc([N+](=O)[O-])ccc1-2
inactive: dose: 100.0 mg/kg/injection, schedule: Q01DX001 (ip), vehicle: carboxymethylcellulose (CMC) 96 % of control | dose: 200.0 mg/kg/injection, schedule: Q01DX001 (ip), vehicle: carboxymethylcellulose (CMC) 96 % of control | dose: 400.0 mg/kg/injection, schedule: Q01DX001 (ip), vehicle: carboxymethylcellulose (CMC) 96 % of control

NCC(O)C(O)C(O)C(O)CO (stereo not drawn)
inactive: [4] 103 % of control | [5] 95 % of control

C=C1CC[N+]2(CCCCCC)CCCC12 (stereo not drawn)
inactive: dose: 6.25 mg/kg/injection, schedule: Q01DX009 (ip), vehicle: saline 97 % of control | dose: 12.5 mg/kg/injection, schedule: Q01DX009 (ip), vehicle: saline 91 % of control | dose: 25.0 mg/kg/injection, schedule: Q01DX009 (ip), vehicle: saline 103 % of control

CCCCCCCCC1NC1CCCCCCCC(=O)OC (stereo not drawn)
inactive: dose: 25.0 mg/kg/injection, schedule: Q04DX002 (ip), vehicle: Klucel (hydroxypropylcellulose) (HPC) 101 % of control | dose: 50.0 mg/kg/injection, schedule: Q04DX002 (ip), vehicle: Klucel (hydroxypropylcellulose) (HPC) 107 % of control | [2] 98 % of control

CCN(CC)Cc1cc(Nc2nc(/C=C/c3ccc(Cl)cc3)nc(Cl)c2-c2ccc(Cl)cc2)ccc1O
inactive: dose: 12.0 mg/kg/injection, schedule: Q01DX001 (ip), vehicle: saline 100 % of control | dose: 12.5 mg/kg/injection, schedule: Q04DX003 (ip), vehicle: Klucel (hydroxypropylcellulose) (HPC) 95 % of control | dose: 25.0 mg/kg/injection, schedule: Q01DX001 (ip), vehicle: saline 107 % of control | dose: 25.0 mg/kg/injection, schedule: Q04DX003 (ip), vehicle: Klucel (hydroxypropylcellulose) (HPC) 98 % of control | [3] 100 % of control | dose: 50.0 mg/kg/injection, schedule: Q04DX003 (ip), vehicle: Klucel (hydroxypropylcellulose) (HPC) 97 % of control
